Like-named read-outs stand apart in the source and are kept apart here.
Experiments:
Assay type in all cases: in vivo
[1] = tested on: green peach aphid (Myzus persicae); assay: Myzus persicae test (spray treatment of infested cabbage leaves)
Source text: (§1) The expected action for a given combination of two active compounds can be calculated as follows, using the formula of S. R. Colby, Weeds 15 (1967), 20-22: • If • X is the kill rate, expressed as % of the untreated control, when employing active compound A at an application rate of m g/ha or in a concentration of in ppm, • Y is the kill rate, expressed as % of the untreated control, when employing active compound B at an application rate of n g/ha or in a concentration of n ppm and • E is the kill rate, expressed as % of the untreated control, when employing active compounds A and B at application rates of m and n g/ha or in a concentration of m and n ppm, • then
(§2) If the actual kill rate exceeds the calculated value, the action of the combination is superadditive, i.e. a synergistic effect is present. In this case, the actually observed kill rate must exceed the value calculated using the above formula for the expected kill rate (E).
(§3) Solvent: 78 parts by weight of acetone • • 1.5 parts by weight of dimethylformamide
(§4) Emulsifier: 0.5 part by weight of alkylaryl polyglycol ether
(§5) To produce a suitable preparation of active compound, 1 part by weight of active compound is mixed with the stated amounts of solvent and emulsifier, and the concentrate is diluted with emulsifier-containing water to the desired concentration.
Cabbage leaves (Brassica oleracea) which are heavily infested by the green peach aphid (Myzus persicae) are treated by spraying with the active compound preparation of the desired concentration.
After the desired period of time, the kill in % is determined. 100% means that all of the aphids have been killed; 0% means that none of the aphids have been killed. The kill rates determined are entered into Colby's formula.

[2] = tested on: larvae of the mustard beetle (Phaedon cochleariae); assay: Phaedon cochleariae larvae test (sprayed cabbage leaves); details: single active compound
Source text: as §1, §2, §3, §4, §5
Cabbage leaves (Brassica oleracea) are treated by spraying with the active compound preparation of the desired concentration and populated with larvae of the mustard beetle (Phaedon cochleariae) while the leaves are still moist.
After the desired period of time, the kill in % is determined. 100% means that all beetle larvae have been killed; 0% means that none of the beetle larvae have been killed. The kill rates determined are entered into Colby's formula.

[3] = tested on: greenhouse red spider mite (Tetranychus urticae); assay: Tetranychus test, OP-resistant/spray treatment (bean leaf discs); details: single active compound
Source text: as §1, §2, §3, §4, §5
Discs of bean leaves (Phaseolus vulgaris) which are infested by all stages of the greenhouse red spider mite (Tetranychus urticae) are sprayed with an active compound preparation of the desired concentration.
After the desired period of time, the effect in % is determined. 100% means that all of the spider mites have been killed; 0% means that none of the spider mites have been killed.

[4] = tested on: armyworm (Spodoptera frugiperda); assay: Spodoptera frugiperda larvae test (sprayed cabbage leaves); details: Spodoptera frugiperda, single active compound
Source text: as §1, §2, §3, §4, §5
Cabbage leaves (Brassica oleracea) are treated by being sprayed with the preparation of active compound of the desired concentration and are populated with the armyworm (Spodoptera frugiperda) while the leaves are still moist.
After the desired period of time, the kill in % is determined. 100% means that all caterpillars have been killed; 0% means that none of the caterpillars have been killed. The kill rates determined are entered, into Colby's formula.

[5] = Myzus persicae, 24 h, after 1 d, read-out: Kill in % after 1d
[6] = Phaedon cochleariae, 144 h, 6 d, read-out: Kill in % after 6 d
[7] = Tetranychus urticae, foliar, 48 h, 2 d, read-out: Kill in % after 2 d
[8] = Tetranychus urticae, foliar, 48 h, 4 g/ha, 2 d, read-out: Kill in % after 2 d
[9] = 144 h, 6 d, read-out: Kill in % after 6 d
[10] = Myzus persicae, 144 h, single active compound, 6 d, read-out: Kill in % after 6 d
[11] = Phaedon cochleariae, 48 h, 20 g/ha, 2 d, read-out: Kill in % after 2 d
[12] = Tetranychus urticae, foliar, 144 h, 6 d, read-out: Kill in % after 6 d
[13] = Myzus persicae, 24 h, 0.16 g/ha, after 1 d, read-out: Kill in % after 1d
[14] = Myzus persicae, 144 h, 0.16 g/ha, single active compound, 6 d, read-out: Kill in % after 6 d
[15] = Phaedon cochleariae, 144 h, 20 g/ha, 6 d, read-out: Kill in % after 6 d
[16] = Tetranychus urticae, foliar, 144 h, 4 g/ha, 6 d, read-out: Kill in % after 6 d
[17] = Tetranychus urticae, foliar, 144 h, 20 g/ha, 6 d, read-out: Kill in % after 6 d

CCc1nn(C)c(C(=O)NCc2ccc(C(C)(C)C)cc2)c1Cl [tebufenpyrad, Tebufenpyrad]
pest or weed control at 20 g/ha [1, 5]: 0% | pest or weed control at 100 g/ha [2, 6]: 0% | pest or weed control at 0.8 g/ha [3, 7]: 0% | pest or weed control at 4 g/ha [3, 8]: 70%

CS/C(C)=N\OC(=O)N(C)SN(C)C(=O)O/N=C(\C)SC [thiodicarb]
pest or weed control at 100 g/ha ([1]; Myzus persicae, 24 h, 100 g/ha, after 1 d, read-out: Kill in % after 1d): 0%

O=C(NC(=O)c1c(F)cccc1F)Nc1ccc(Oc2ccc(C(F)(F)F)cc2Cl)cc1F [flufenoxuron]
pest or weed control at 20 g/ha [4, 9]: 33%

Cc1cc(C)c(C2=C(OC(=O)CC(C)(C)C)C3(CCCC3)OC2=O)c(C)c1 [spiromesifen]
pest or weed control at 0.8 g/ha [1, 10]: 0% | pest or weed control at 20 g/ha ([3]; Tetranychus urticae, foliar, 48 h, 20 g/ha, 2 d, read-out: Kill in % after 2 d): 0%

CNC(=O)Oc1cccc2c1OC(C)(C)C2 [carbofuran]
pest or weed control at 4 g/ha [4, 9]: 0%

CC1(C)C(/C=C/C(=O)OC(C(F)(F)F)C(F)(F)F)C1C(=O)OC(C#N)c1cccc(Oc2ccccc2)c1 (stereo not shown) [acrinathrin]
pest or weed control at 0.8 g/ha ([4]; 144 h, 0.8 g/ha, 6 d, read-out: Kill in % after 6 d): 0%

Cc1nn(C)c(Oc2ccccc2)c1C=NOCc1ccc(C(=O)OC(C)(C)C)cc1 [fenpyroximate, Fenpyroximate]
pest or weed control at 20 g/ha [2, 11]: 0%

CC(C)N1C(=O)N(c2ccccc2)CS/C1=N\C(C)(C)C [buprofezin]
pest or weed control at 500 g/ha ([1]; Myzus persicae, 144 h, 500 g/ha, single active compound, 6 d, read-out: Kill in % after 6 d): 0%

spinosad
Kill in % after 2 d ([2]; 4 g/ha, 2 d): 33% | Kill in % after 6 d ([3]; 20 g/ha, 6 d): 80%

CN/C(=N\[N+](=O)[O-])NCC1CCOC1 (stereo not shown) [dinotefuran]
pest or weed control at 4 g/ha [1, 5]: 0% | pest or weed control at 4 g/ha [1, 10]: 0% | pest or weed control at 20 g/ha [2, 11]: 17%

Cc1cc(C(F)(C(F)(F)F)C(F)(F)F)ccc1NC(=O)c1cccc(I)c1C(=O)NC(C)(C)CS(C)(=O)=O [flubendiamide, Flubendiamide]
pest or weed control at 0.8 g/ha [1, 10]: 0% | pest or weed control at 4 g/ha [4, 9]: 33%

CCC(C)(C)C(=O)OC1=C(c2ccc(Cl)cc2Cl)C(=O)OC12CCCCC2 [spirodiclofen]
pest or weed control at 4 g/ha [1, 10]: 0% | pest or weed control at 0.8 g/ha [3, 12]: 20%

CN1COCN(Cc2cnc(Cl)s2)/C1=N/[N+](=O)[O-] [thiamethoxam]
pest or weed control at 0.16 g/ha [1, 13]: 0% | pest or weed control at 0.16 g/ha [1, 14]: 0% | pest or weed control at 20 g/ha [2, 15]: 50%

Cc1cc(F)c(-n2nc(C(F)(F)F)nc2N)cc1[S+]([O-])CC(F)(F)F (stereo not shown) [1-{2-fluoro-4-methyl-5-[(2,2,2-trifluoroethyl)sulphinyl]phenyl}-3-(trifluoromethyl)-1H-1,2,4-triazole-5-amine]
pest or weed control at 100 g/ha [2, 6]: 0% | pest or weed control at 0.8 g/ha [3, 12]: 0% | pest or weed control at 4 g/ha [3, 16]: 80%

O=[N+]([O-])/N=C1\NCCN1Cc1ccc(Cl)nc1 [imidacloprid]
pest or weed control at 0.16 g/ha [1, 13]: 0% | pest or weed control at 20 g/ha [2, 15]: 33%

Cc1c(F)c(F)c(COC(=O)[C@@H]2[C@H](/C=C(\Cl)C(F)(F)F)C2(C)C)c(F)c1F (racemic) [tefluthrin]
pest or weed control at 4 g/ha [1, 5]: 70% | pest or weed control at 20 g/ha [2, 15]: 33%

N#C/N=C1\SCCN1Cc1ccc(Cl)nc1 [thiacloprid]
pest or weed control at 0.16 g/ha [1, 13]: 0% | pest or weed control at 0.16 g/ha [1, 14]: 0% | pest or weed control at 20 g/ha [2, 15]: 0%

O=C(NC(=O)c1c(F)cccc1F)Nc1ccc(OC(F)(F)C(F)OC(F)(F)F)c(Cl)c1 (stereo not shown) [novaluron]
pest or weed control at 100 g/ha [2, 6]: 0%

CC(C)c1cc(Oc2ccccc2)cc(C(C)C)c1NC(=S)NC(C)(C)C [diafenthiuron]
pest or weed control at 20 g/ha [1, 5]: 0% | pest or weed control at 4 g/ha [3, 8]: 0%

C/C(=N\C#N)N(C)Cc1ccc(Cl)nc1 [acetamiprid]
pest or weed control at 0.16 g/ha [1, 14]: 0% | pest or weed control at 20 g/ha [2, 15]: 0%

CC1(C)C(C=C(Cl)Cl)C1C(=O)OC(C#N)c1cccc(Oc2ccccc2)c1 (stereo not shown) [cypermethrin]
pest or weed control at 0.8 g/ha [1, 5]: 70% | pest or weed control at 4 g/ha ([2]; Phaedon cochleariae, 48 h, 4 g/ha, 2 d, read-out: Kill in % after 2 d): 17% | pest or weed control at 20 g/ha [3, 17]: 0%

CC(c1ccc(C(F)(F)F)nc1)S(C)(=O)=NC#N (stereo not shown) [sulfoxaflor]
pest or weed control at 4 g/ha [3, 16]: 0%

CC1(C)[C@H](/C=C(\Cl)C(F)(F)F)[C@@H]1C(=O)O[C@H](C#N)c1cccc(Oc2ccccc2)c1 [gamma-cyhalothrin]
pest or weed control at 0.032 g/ha ([1]; Myzus persicae, 24 h, 0.032 g/ha, after 1 d, read-out: Kill in % after 1d): 0% | pest or weed control at 0.8 g/ha [3, 7]: 0%

CCOCn1c(-c2ccc(Cl)cc2)c(C#N)c(Br)c1C(F)(F)F [chlorfenapyr]
pest or weed control at 100 g/ha ([4]; 48 h, 100 g/ha, 2 d, read-out: Kill in % after 2 d): 50%

CC1(C)[C@H](C=C(Cl)Cl)[C@H]1C(=O)OCc1c(F)c(F)cc(F)c1F [transfluthrin]
pest or weed control at 4 g/ha [4, 9]: 33%

CCOC(=O)OC1=C(c2cc(C)ccc2C)C(=O)N[C@]12CC[C@@H](OC)CC2 [spirotetramat]
pest or weed control at 0.16 g/ha [1, 14]: 0%

O=C1C=C(N(Cc2ccc(Cl)nc2)CC(F)F)CO1 [4-{[(6-chloropyrid-3-yl)methyl](2,2-difluoroethyl)amino}furan-2(5H)-one]
pest or weed control at 4 g/ha [1, 5]: 70%

CC(=O)N1C(=O)N(NCc2cccnc2)Cc2cc(C(F)(C(F)(F)F)C(F)(F)F)ccc21 [pyrifluquinazone]
pest or weed control at 100 g/ha ([3]; Tetranychus urticae, foliar, 144 h, 100 g/ha, 6 d, read-out: Kill in % after 6 d): 0%

milbemectin
Kill in % after 6 d ([2]; 20 g/ha, 6 d): 0%

CC[S+]([O-])c1c(C#N)nn(-c2c(Cl)cc(C(F)(F)F)cc2Cl)c1N (stereo not shown) [ethiprole]
pest or weed control at 20 g/ha [1, 5]: 0% | pest or weed control at 0.16 g/ha ([2]; Phaedon cochleariae, 144 h, 0.16 g/ha, 6 d, read-out: Kill in % after 6 d): 0% | pest or weed control at 20 g/ha [3, 17]: 0%

COc1cccc(C(=O)NN(C(=O)c2cc(C)cc(C)c2)C(C)(C)C)c1C [methoxyfenozide]
pest or weed control at 20 g/ha ([4]; 48 h, 2 d, read-out: Kill in % after 2 d): 33%

abamectin
Kill in % after 1d ([1]; 0.16 g/ha, after 1 d): 0% | Kill in % after 6 d ([1]; 0.16 g/ha, single active compound, 6 d): 0% | Kill in % after 6 d ([2]; 0.16 g/ha, 6 d): 0% | Kill in % after 2 d ([3]; 4 g/ha, 2 d): 0%

spinetoram
Kill in % after 2 d ([2]; 4 g/ha, 2 d): 50%

O=C(NC(=O)c1ccccc1Cl)Nc1ccc(OC(F)(F)F)cc1 [triflumuron]
pest or weed control at 4 g/ha [4, 9]: 17%
